According to ChEMBL document CHEMBL4261633, “Butenolides from a marine-derived fungus Aspergillus terreus with antitumor activities against pancreatic ductal adenocarcinoma cells” (Bioorg Med Chem, 2018):

Columns and labels:
Format in all cases: functional, cell-based
PANC-1 = assay: Antiproliferative activity against human PANC1 cells after 24 hrs by CCK8 assay; conditions: PANC-1, 24 h
HCC1806 = assay: Antiproliferative activity against human HCC1806 cells after 24 hrs by CCK8 assay; conditions: HCC1806, 24 h
HepG2 = assay: Antiproliferative activity against human HepG2 cells after 24 hrs by CCK8 assay; conditions: HepG2, 24 h
BEAS-2B = assay: Antiproliferative activity against human BEAS2B cells after 24 hrs by CCK8 assay
HT-29 = assay: Antiproliferative activity against human HT-29 cells after 24 hrs by CCK8 assay; conditions: HT-29, 24 h

| Compound | IC50 (PANC-1) [µM] | IC50 (HCC1806) [µM] | IC50 (HepG2) [µM] | IC50 (HT-29) [µM] | IC50 (BEAS-2B) [µM] |
| --- | --- | --- | --- | --- | --- |
| COC(=O)[C@]1(Cc2ccc3c(c2)CC(C(C)(C)O)O3)OC(=O)C(O)=C1c1ccccc1 (some centres undefined) | > 20 | > 20 | > 20 | > 20 | > 20 |
| COC(=O)[C@]1(Cc2ccc3c(c2)CC(O)C(C)(C)O3)OC(=O)C(O)=C1c1ccccc1 (some centres undefined) | > 20 | > 20 | > 20 | > 20 | > 20 |
| CC(C)(O)C1Cc2cc(C[C@H]3OC(=O)C(O)=C3c3ccc(O)cc3)ccc2O1 (some centres undefined) | > 20 | > 20 | > 20 | > 20 | > 20 |
| COC(=O)[C@]1(Cc2ccc(O)c(C[C@@H](O)C(C)C)c2)OC(=O)C(O)=C1c1ccc(O)cc1 | > 20 | > 20 | > 20 | > 20 | > 20 |
| CC(=O)O[C@H]1C(=O)[C@@]2(C)[C@H]([C@H](OC(=O)c3ccccc3)[C@]3(O)C[C@H](OC(=O)[C@H](O)[C@@H](NC(=O)c4ccccc4)c4ccccc4)C(C)=C1C3(C)C)[C@]1(OC(C)=O)CO[C@@H]1C[C@@H]2O [PACLITAXEL] | 0.04 | 0.001 | 0.009 |  | 0.007 |
| COC(=O)[C@]1(Cc2ccc(O)c(CC3OC3(C)C)c2)OC(=O)C(O)=C1c1ccc(O)cc1 (some centres undefined) | > 20 | > 20 | > 20 | > 20 | > 20 |
| COC(=O)[C@]1(Cc2ccc(O)c(CC=C(C)C)c2)OC(=O)C(O)=C1c1ccc(O)cc1 | > 20 | > 20 | > 20 | > 20 | > 20 |

Second part, led by results:

| IC50 (PANC-1) [µM] | IC50 (HCC1806) [µM] | IC50 (HepG2) [µM] | IC50 (HT-29) [µM] | Compound | IC50 (BEAS-2B) [µM] |
| --- | --- | --- | --- | --- | --- |
| > 20 | > 20 | > 20 | > 20 | COC(=O)[C@]1(Cc2ccc3c(c2)CCC(C)(C)O3)OC(=O)C(O)=C1c1ccc(O)cc1 | > 20 |
| > 20 | > 20 | > 20 | > 20 | COC(=O)[C@]1(Cc2ccc3c(c2)C=CC(C)(C)O3)OC(=O)C(O)=C1c1ccc(O)cc1 | > 20 |
| > 20 | > 20 | > 20 | > 20 | COC(=O)[C@]1(Cc2ccc3c(c2)C[C@H](O)C(C)(C)O3)OC(=O)C(O)=C1c1ccc(O)cc1 [BUTYROLACTONE V] | > 20 |
| > 20 | > 20 | > 20 | > 20 | COC(=O)[C@]1(Cc2ccc3c(c2)C[C@H](C(C)(C)O)O3)OC(=O)C(O)=C1c1ccc(O)cc1 [BUTYROLACTONE IV] | > 20 |
